According to ChEMBL document CHEMBL1151757, “Synthesis, radiosynthesis, and biological evaluation of fluorine-18-labeled 2beta-carbo(fluoroalkoxy)-3beta-(3'-((Z)-2-haloethenyl)phenyl)nortropanes: candidate radioligands for in vivo imaging of the serotonin transporter with positron emission tomography” (J Med Chem, 2008):

Columns and labels:
[1] = Drug uptake in anesthetized cynomolgus monkey brain frontal lobe after 75 mins postinjection; assay type: ADME, organism-based, Macaca fascicularis; details: in vivo, 1.25 h
[2] = Ratio of drug uptake in midbrain to cerebellum in anesthetized cynomolgus monkey after 27.5 mins postinjection; assay type: ADME, organism-based, Macaca fascicularis; details: in vivo
Medulla [3] = assay: Drug uptake in anesthetized cynomolgus monkey brain medulla after 12.5 mins postinjection; assay type: ADME, organism-based, Macaca fascicularis; details: in vivo
[4] = Ratio of drug uptake in putamen to cerebellum in anesthetized cynomolgus monkey after 9.5 mins postinjection; assay type: ADME, organism-based, Macaca fascicularis; details: in vivo
Medulla [5] = assay: Drug uptake in anesthetized cynomolgus monkey brain medulla after 225 mins postinjection; assay type: ADME, organism-based, Macaca fascicularis; details: in vivo, 3.75 h
[6] = Drug uptake in anesthetized cynomolgus monkey brain occipital lobe after 225 mins postinjection; assay type: ADME, organism-based, Macaca fascicularis; details: in vivo, 3.75 h
Thalamus [7] = assay: Drug uptake in anesthetized cynomolgus monkey brain thalamus after 55 mins postinjection; assay type: ADME, organism-based, Macaca fascicularis; parameters: unit not given here; details: in vivo
Medulla [8] = assay: Drug uptake in anesthetized cynomolgus monkey brain medulla after 235 mins postinjection; assay type: ADME, organism-based, Macaca fascicularis; details: in vivo
Putamen [9] = assay: Drug uptake in anesthetized cynomolgus monkey brain putamen after 85 mins postinjection; assay type: ADME, organism-based, Macaca fascicularis; parameters: unit not given here; details: in vivo
[10] = Drug uptake in anesthetized cynomolgus monkey brain frontal lobe after 165 mins postinjection; assay type: ADME, organism-based, Macaca fascicularis; details: in vivo, 2.75 h
[11] = Drug uptake in anesthetized cynomolgus monkey brain cerebellum after 35 mins postinjection; assay type: ADME, organism-based, Macaca fascicularis; details: in vivo
Midbrain [12] = assay: Drug uptake in anesthetized cynomolgus monkey brain midbrain after 235 mins postinjection; assay type: ADME, organism-based, Macaca fascicularis; details: in vivo
[13] = Drug uptake in anesthetized cynomolgus monkey brain occipital lobe after 22.5 mins postinjection; assay type: ADME, organism-based, Macaca fascicularis; details: in vivo, 0.375 h
[14] = Drug uptake in anesthetized cynomolgus monkey brain frontal lobe after 18.5 mins postinjection; assay type: ADME, organism-based, Macaca fascicularis; details: in vivo
Medulla [15] = assay: Drug uptake in anesthetized cynomolgus monkey brain medulla after 85 mins postinjection; assay type: ADME, organism-based, Macaca fascicularis; details: in vivo
[16] = Octanol-water partition coefficient, log P at pH 7.4 by shake-flask method; assay type: physicochemical
Medulla [17] = assay: Drug uptake in anesthetized cynomolgus monkey brain medulla after 105 mins postinjection; assay type: ADME, organism-based, Macaca fascicularis; details: in vivo, 1.75 h
[18] = Drug uptake in anesthetized cynomolgus monkey brain occipital lobe after 95 mins postinjection; assay type: ADME, organism-based, Macaca fascicularis; details: in vivo
[19] = Drug uptake in anesthetized cynomolgus monkey brain frontal lobe after 12.5 mins postinjection; assay type: ADME, organism-based, Macaca fascicularis; details: in vivo
[20] = Ratio of drug uptake in occipital lobe to cerebellum in anesthetized cynomolgus monkey after 105 mins postinjection; assay type: ADME, organism-based, Macaca fascicularis; details: in vivo, 1.75 h
Midbrain [21] = assay: Drug uptake in anesthetized cynomolgus monkey brain midbrain after 3.5 mins postinjection; assay type: ADME, organism-based, Macaca fascicularis; parameters: unit not given here; details: in vivo
[22] = Ratio of drug uptake in occipital lobe to cerebellum in anesthetized cynomolgus monkey after 4.5 mins postinjection; assay type: ADME, organism-based, Macaca fascicularis; details: in vivo, 0.075 h
Caudate [23] = assay: Drug uptake in anesthetized cynomolgus monkey brain caudate after 55 mins postinjection; assay type: ADME, organism-based, Macaca fascicularis, Caudate nucleus; details: in vivo
[24] = Drug uptake in anesthetized cynomolgus monkey brain cerebellum after 225 mins postinjection; assay type: ADME, organism-based, Macaca fascicularis; details: in vivo, 3.75 h
[25] = Drug uptake in anesthetized cynomolgus monkey brain occipital lobe after 0.5 mins postinjection; assay type: ADME, organism-based, Macaca fascicularis; details: in vivo
Putamen [26] = assay: Drug uptake in anesthetized cynomolgus monkey brain putamen after 0.5 mins postinjection; assay type: ADME, organism-based, Macaca fascicularis; details: in vivo
[27] = Ratio of drug uptake in frontal lobe to cerebellum in anesthetized cynomolgus monkey after 3.5 mins postinjection; assay type: ADME, organism-based, Macaca fascicularis; details: in vivo
[28] = Ratio of drug uptake in thalamus to cerebellum in anesthetized cynomolgus monkey after 155 mins postinjection; assay type: ADME, organism-based, Macaca fascicularis; details: in vivo
[29] = Ratio of drug uptake in putamen to cerebellum in anesthetized cynomolgus monkey after 165 mins postinjection; assay type: ADME, organism-based, Macaca fascicularis; details: in vivo, 2.75 h
Midbrain [30] = assay: Drug uptake in anesthetized cynomolgus monkey brain midbrain after 105 mins postinjection; assay type: ADME, organism-based, Macaca fascicularis; parameters: unit not given here; details: in vivo, 1.75 h
Midbrain [31] = assay: Drug uptake in anesthetized cynomolgus monkey brain midbrain after 165 mins postinjection; assay type: ADME, organism-based, Macaca fascicularis; details: in vivo, 2.75 h
[32] = Ratio of drug uptake in occipital lobe to cerebellum in anesthetized cynomolgus monkey after 0.5 mins postinjection; assay type: ADME, organism-based, Macaca fascicularis; details: in vivo
Medulla [33] = assay: Drug uptake in anesthetized cynomolgus monkey brain medulla after 65 mins postinjection; assay type: ADME, organism-based, Macaca fascicularis; details: in vivo
[34] = Drug uptake in anesthetized cynomolgus monkey brain occipital lobe after 27.5 mins postinjection; assay type: ADME, organism-based, Macaca fascicularis; details: in vivo
Thalamus [35] = assay: Drug uptake in anesthetized cynomolgus monkey brain thalamus after 165 mins postinjection; assay type: ADME, organism-based, Macaca fascicularis; parameters: unit not given here; details: in vivo, 2.75 h
Midbrain [36] = assay: Drug uptake in anesthetized cynomolgus monkey brain midbrain after 55 mins postinjection; assay type: ADME, organism-based, Macaca fascicularis; parameters: unit not given here; details: in vivo
[37] = Ratio of drug uptake in occipital lobe to cerebellum in anesthetized cynomolgus monkey after 175 mins postinjection; assay type: ADME, organism-based, Macaca fascicularis; details: in vivo
Thalamus [38] = assay: Drug uptake in anesthetized cynomolgus monkey brain thalamus after 15.5 mins postinjection; assay type: ADME, organism-based, Macaca fascicularis; parameters: unit not given here; details: in vivo
Medulla [39] = assay: Drug uptake in anesthetized cynomolgus monkey brain medulla after 9.5 mins postinjection; assay type: ADME, organism-based, Macaca fascicularis; details: in vivo
Thalamus [40] = assay: Drug uptake in anesthetized cynomolgus monkey brain thalamus after 215 mins postinjection; assay type: ADME, organism-based, Macaca fascicularis; parameters: unit not given here; details: in vivo
[41] = Ratio of drug uptake in putamen to cerebellum in anesthetized cynomolgus monkey after 45 mins postinjection; assay type: ADME, organism-based, Macaca fascicularis; details: in vivo, 0.75 h
[42] = Drug uptake in anesthetized cynomolgus monkey brain occipital lobe after 35 mins postinjection; assay type: ADME, organism-based, Macaca fascicularis; details: in vivo
Midbrain [43] = assay: Drug uptake in anesthetized cynomolgus monkey brain midbrain after 2.5 mins postinjection; assay type: ADME, organism-based, Macaca fascicularis; parameters: unit not given here; details: in vivo
[44] = Drug uptake in anesthetized cynomolgus monkey brain cerebellum after 6.5 mins postinjection; assay type: ADME, organism-based, Macaca fascicularis; details: in vivo
[45] = Drug uptake in anesthetized cynomolgus monkey brain cerebellum after 15.5 mins postinjection; assay type: ADME, organism-based, Macaca fascicularis; details: in vivo
[46] = Drug uptake in anesthetized cynomolgus monkey brain occipital lobe after 85 mins postinjection; assay type: ADME, organism-based, Macaca fascicularis; details: in vivo
[47] = Drug uptake in anesthetized cynomolgus monkey brain cerebellum after 115 mins postinjection; assay type: ADME, organism-based, Macaca fascicularis; details: in vivo
Midbrain [48] = assay: Drug uptake in anesthetized cynomolgus monkey brain midbrain after 18.5 mins postinjection; assay type: ADME, organism-based, Macaca fascicularis; parameters: unit not given here; details: in vivo
Thalamus [49] = assay: Drug uptake in anesthetized cynomolgus monkey brain thalamus after 135 mins postinjection; assay type: ADME, organism-based, Macaca fascicularis; parameters: unit not given here; details: in vivo, 2.25 h
Medulla [50] = assay: Drug uptake in anesthetized cynomolgus monkey brain medulla after 75 mins postinjection; assay type: ADME, organism-based, Macaca fascicularis; details: in vivo, 1.25 h
[51] = Ratio of drug uptake in pons to cerebellum in anesthetized cynomolgus monkey after 0.5 mins postinjection; assay type: ADME, organism-based, Macaca fascicularis; details: in vivo
Caudate [52] = assay: Drug uptake in anesthetized cynomolgus monkey brain caudate after 1.5 mins postinjection; assay type: ADME, organism-based, Macaca fascicularis, Caudate nucleus; details: in vivo, 0.025 h
[53] = Ratio of drug uptake in putamen to cerebellum in anesthetized cynomolgus monkey after 35 mins postinjection; assay type: ADME, organism-based, Macaca fascicularis; details: in vivo
[54] = Ratio of drug uptake in medulla to cerebellum in anesthetized cynomolgus monkey after 1.5 mins postinjection; assay type: ADME, organism-based, Macaca fascicularis; details: in vivo, 0.025 h
Midbrain [55] = assay: Drug uptake in anesthetized cynomolgus monkey brain midbrain after 115 mins postinjection; assay type: ADME, organism-based, Macaca fascicularis; parameters: unit not given here; details: in vivo
Caudate [56] = assay: Drug uptake in anesthetized cynomolgus monkey brain caudate after 35 mins postinjection; assay type: ADME, organism-based, Macaca fascicularis, Caudate nucleus; details: in vivo
Putamen [57] = assay: Drug uptake in anesthetized cynomolgus monkey brain putamen after 145 mins postinjection; assay type: ADME, organism-based, Macaca fascicularis; details: in vivo
Pons = assay: Drug uptake in anesthetized cynomolgus monkey brain pons after 15.5 mins postinjection; assay type: ADME, organism-based, Macaca fascicularis; details: in vivo
[58] = Ratio of drug uptake in midbrain to cerebellum in anesthetized cynomolgus monkey after 145 mins postinjection; assay type: ADME, organism-based, Macaca fascicularis; details: in vivo
[59] = Drug uptake in anesthetized cynomolgus monkey brain cerebellum after 18.5 mins postinjection; assay type: ADME, organism-based, Macaca fascicularis; details: in vivo
[60] = Drug uptake in anesthetized cynomolgus monkey brain cerebellum after 175 mins postinjection; assay type: ADME, organism-based, Macaca fascicularis; details: in vivo

Question: What does the source list for `O=C(OCCC[18F])C1C2CCC(CC1c1cccc(/C=C\Br)c1)N2` (stereo unspecified)?
Answer: Drug uptake [1]: 3.49; Ratio [2]: 1.1; Drug uptake (Medulla [3]): 5.82; Ratio [4]: 0.9; Drug uptake (Medulla [5]): 3.64; Drug uptake [6]: 2.54; Drug uptake (Thalamus [7]): 5.46; Drug uptake (Medulla [8]): 3.34; Drug uptake (Putamen [9]): 5.54; Drug uptake [10]: 2.58; Drug uptake [11]: 5.43; Drug uptake (Midbrain [12]): 4.33; Drug uptake [13]: 4.5; Drug uptake [14]: 3.7; Drug uptake (Medulla [15]): 5.41; logD [16]: 1.87; Drug uptake (Medulla [17]): 5.19; Drug uptake [18]: 4.16; Drug uptake [19]: 3.5; Ratio [20]: 1.1; Drug uptake (Midbrain [21]): 2.59; Ratio [22]: 0.7; Drug uptake (Caudate [23]): 5.31; Drug uptake [24]: 2.03; Drug uptake [25]: 0.01; Drug uptake (Putamen [26]): 0.01; Ratio [27]: 0.5; Ratio [28]: 1.6; Ratio [29]: 1.7; Drug uptake (Midbrain [30]): 5.59; Drug uptake (Midbrain [31]): 5.06; Ratio [32]: 1; Drug uptake (Medulla [33]): 5.61; Drug uptake [34]: 4.71; Drug uptake (Thalamus [35]): 4.31; Drug uptake (Midbrain [36]): 6.1; Ratio [37]: 1.3; Drug uptake (Thalamus [38]): 4.64; Drug uptake (Medulla [39]): 5.63; Drug uptake (Thalamus [40]): 3.62; Ratio [41]: 1.2; Drug uptake [42]: 4.66; Drug uptake (Midbrain [43]): 1.48; Drug uptake [44]: 5.03; Drug uptake [45]: 5.62; Drug uptake [46]: 4.19; Drug uptake [47]: 3.29; Drug uptake (Midbrain [48]): 5.49; Drug uptake (Thalamus [49]): 4.58; Drug uptake (Medulla [50]): 5.49; Ratio [51]: 1.6; Drug uptake (Caudate [52]): 0.31; Ratio [53]: 1.1; Ratio [54]: 0.9; Drug uptake (Midbrain [55]): 5.52; Drug uptake (Caudate [56]): 5.13; Drug uptake (Putamen [57]): 4.58; Drug uptake (Pons): 4.79; Ratio [58]: 1.8; Drug uptake [59]: 6.08; Drug uptake [60]: 2.45
